Assay results published in patent publication US8557839B2, “Fused ring azadecalin glucocorticoid receptor modulators” (Corcept Therapeutics, Inc., priority 2004, dated 2013).

Key:
[1] = target: T1, progesterone (PR) receptor (Homo sapiens, UniProt P06401); experiment: PR functional assay using T47D/MMTV-5 cells; format: cell-based; details: read-out: inhibition of the PR agonist response
T1 construct: containing endogenous mineralocorticoid-(MR) and progesterone (PR) receptors; endogenous in cells; host or cells: T47D/MMTV-5 (human breast carcinoma, stably carrying the pMAMneo-Luc reporter)
T1 sequence (P06401 1-933): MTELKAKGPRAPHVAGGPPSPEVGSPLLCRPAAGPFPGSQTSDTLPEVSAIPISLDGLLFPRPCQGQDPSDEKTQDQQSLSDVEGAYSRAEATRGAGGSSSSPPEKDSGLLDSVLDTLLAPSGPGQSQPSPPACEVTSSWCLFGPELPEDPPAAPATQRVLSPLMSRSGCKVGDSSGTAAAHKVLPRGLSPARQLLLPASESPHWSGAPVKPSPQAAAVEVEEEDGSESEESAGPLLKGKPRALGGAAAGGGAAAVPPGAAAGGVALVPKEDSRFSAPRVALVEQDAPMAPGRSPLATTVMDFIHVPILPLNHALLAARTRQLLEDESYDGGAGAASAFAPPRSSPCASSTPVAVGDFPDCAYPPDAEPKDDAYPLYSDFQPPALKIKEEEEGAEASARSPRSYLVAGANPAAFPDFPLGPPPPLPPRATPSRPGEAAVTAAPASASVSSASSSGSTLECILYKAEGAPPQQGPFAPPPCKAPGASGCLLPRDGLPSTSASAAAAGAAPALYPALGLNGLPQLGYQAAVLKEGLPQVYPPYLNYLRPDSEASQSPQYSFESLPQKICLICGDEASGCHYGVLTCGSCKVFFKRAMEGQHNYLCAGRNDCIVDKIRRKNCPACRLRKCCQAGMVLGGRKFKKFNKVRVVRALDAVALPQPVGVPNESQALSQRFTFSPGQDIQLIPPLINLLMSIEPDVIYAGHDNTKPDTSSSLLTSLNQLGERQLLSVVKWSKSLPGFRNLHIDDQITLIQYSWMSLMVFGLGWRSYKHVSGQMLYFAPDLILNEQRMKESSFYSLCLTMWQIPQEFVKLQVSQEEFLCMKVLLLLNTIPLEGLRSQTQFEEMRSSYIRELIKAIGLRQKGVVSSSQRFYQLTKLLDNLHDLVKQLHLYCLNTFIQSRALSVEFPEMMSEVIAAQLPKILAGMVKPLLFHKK
Experimental: (§1) As for the SW 1353 cell line, T47D cells was transfected with the same pMAMneo-Luc plasmid, and stable lines selected with geneticin.
(§2) T47D/MMTV-5 cells were distributed in 96-well plates (100 μl) in RPMI1640 medium +10% Charcoal stripped FCS. The cells were incubated for 24 hrs in the CO2-oven. A volume of 100 μl of the compound dilutions in medium +agonist (500 nM aldost; 50 nM progest) were added, and the plates further incubated for another 24 hrs after which the luciferase expression was measured.

[2] = target: T2, mineralocorticoid (MR) receptor (Homo sapiens, UniProt P08235); experiment: MR functional assay using T47D/MMTV-5 cells; format: cell-based; details: read-out: inhibition of the MR functional response
T2 construct: containing endogenous mineralocorticoid-(MR) and progesterone (PR) receptors; endogenous in cells; host or cells: T47D/MMTV-5 (human breast carcinoma, stably carrying the pMAMneo-Luc reporter)
T2 sequence (P08235 1-984): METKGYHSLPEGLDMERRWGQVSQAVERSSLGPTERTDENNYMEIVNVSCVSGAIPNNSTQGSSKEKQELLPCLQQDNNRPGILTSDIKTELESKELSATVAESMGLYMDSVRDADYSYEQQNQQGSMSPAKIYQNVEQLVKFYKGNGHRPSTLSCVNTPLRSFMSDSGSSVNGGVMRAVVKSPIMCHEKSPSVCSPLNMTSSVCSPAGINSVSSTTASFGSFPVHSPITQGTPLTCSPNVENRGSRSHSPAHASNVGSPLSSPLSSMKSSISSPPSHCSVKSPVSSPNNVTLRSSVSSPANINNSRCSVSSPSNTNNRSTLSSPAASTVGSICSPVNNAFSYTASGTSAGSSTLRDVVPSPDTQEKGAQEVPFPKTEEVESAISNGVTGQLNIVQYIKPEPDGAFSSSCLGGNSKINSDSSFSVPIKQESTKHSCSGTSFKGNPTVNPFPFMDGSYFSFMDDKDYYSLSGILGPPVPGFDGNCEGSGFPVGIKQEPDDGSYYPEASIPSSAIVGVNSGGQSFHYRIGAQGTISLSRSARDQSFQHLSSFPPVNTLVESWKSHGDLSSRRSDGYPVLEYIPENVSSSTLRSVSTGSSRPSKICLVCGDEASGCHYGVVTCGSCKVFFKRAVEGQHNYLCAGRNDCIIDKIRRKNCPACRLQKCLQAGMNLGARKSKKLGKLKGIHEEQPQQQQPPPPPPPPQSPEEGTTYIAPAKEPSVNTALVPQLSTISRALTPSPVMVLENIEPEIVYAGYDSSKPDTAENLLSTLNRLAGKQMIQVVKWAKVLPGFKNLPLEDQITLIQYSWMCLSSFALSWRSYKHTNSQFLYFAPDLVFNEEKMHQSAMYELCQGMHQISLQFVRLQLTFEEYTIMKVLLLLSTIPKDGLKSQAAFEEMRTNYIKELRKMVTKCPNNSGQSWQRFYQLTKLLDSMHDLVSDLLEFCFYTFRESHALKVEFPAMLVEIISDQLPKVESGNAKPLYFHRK
Experimental: as §1, §2

CC(C)(C)c1ccc(S(=O)(=O)N2CCC3=Cc4c(cnn4-c4ccc(F)cc4)C[C@]3(C)C2)cc1 [Example 29, (S)-6-(4-tert-Butyl-benzenesulfonyl)-1-(4-fluoro-phenyl)-4a-methyl-4,4a,5,6,7,8-hexahydro-1H-1,2,6-triaza-cyclopenta[b]naphthalene]
inhibition at 3 µM [1]: 8%
inhibition at 3 µM [2]: 10%
